Test results from patent US20250100962A1 (CITY OF HOPE, priority 2023, published 2025).

How the values were obtained:
[1] = system: dystrophin-deficient mdx primary myoblasts; assay: Myogenic differentiation of mdx primary myoblasts (MyHC staining); type: cell-based, mouse; conditions: for mature myofiber/myocyte formation (MyHC staining): 2% FBS, vs DMSO
Source text: FIGS. 16A-16B. Pro-myogenic effect of chlorhexidine on dystrophin-deficient mdx primary myoblasts. FIG. 16A: We used primary myoblasts isolated from male mdx mice as a cellular model to test the effect of CHX on myogenesis. […] Both of the pro-myogenic and proliferative effects of CHX observed in mdx primary myoblasts were consistent with prior findings from C2C12 myoblasts. Additional validations of these effects are on-going using myoblasts derived from human DMD patients.
FIGS. 22A-22B. […] Using primary myoblasts isolated from mdx mice, we determined CM002 effect on myogenesis in this dystrophic disease cellular model. […] Similar as shown in C2C12 myoblasts, this effect was stronger than that of CHX.

[2] = system: Wnt signaling activity; assay: TOPFlash luciferase reporter (Wnt activity) in U2OS cells; type: cell-based; conditions: for TOPFlash reporter activity, Wnt3a-containing media: Wnt3a stimulated; for TOPFlash Wnt activity, basal condition: without Wnt stimulation
Method: FIGS. 20A-20F. Effect of CM002 on activating circadian clock function. […] We tested the effect of CM002 from 0.2-5 μM on clock modulation in […] cells containing Per2::dLuc reporter using Lumicycle by monitoring chemiluminescence recordings for 6 days. The results were presented using the average original luminescence (FIG. 20A) or baseline-adjusted presentation (FIG. 20B). […] Based on the known clock effect on stimulating Wnt signaling activity, we used a TCF4 promoter-driven TOPFlash luciferase reporter to determine the effect of CM002 on Wnt pathway and compared this activity with CHX.
TOPFlash luciferase reporter assay. M50 Super 8×TOPFlash luciferase reporter containing Wnt-responsive TCF bindings sites was a gift from Randall Moon (Veeman, Slusarski, Kaykas et al., 2003) obtained from Addgene (Addgene plasmid #12456). Cells were seeded and grown overnight, and cell transfection was performed at 90% confluency. 24 hours following transfection, cells were treated using 10% Wnt3a conditioned media obtained from L Wnt-3A cell line (ATCC CRL-2647) to induce luciferase activity. Luciferase activity was assayed using Dual-Luciferase Reporter Assay Kit (Promega) in 96-well black plates. TOPFlash luciferase reporter luminescence was measured on microplate reader (TECAN infinite M200pro) and normalized to control FOPFlash activity, as previously described (Guo et al., 2012). The mean and standard deviation values were calculated for each well and graphed.

[3] = system: C57/BL6 wild-type mice; assay: Cardiotoxin-induced acute muscle injury, intramuscular injection into TA muscle; type: in vivo, mouse; conditions: for eMyHC staining (new myofiber formation): after cardiotoxin injury, local intramuscular injection
Source text: FIGS. 42A-42B. CHX and CM002 promote nascent myofiber formation upon acute muscle injury. To determine whether the effect of CHX and CM002 on promoting myogenesis leads to improved muscle regeneration in vivo, we tested local intramuscular injection into TA muscle following acute injury by cardiotoxin in normal C57/BL6 wild-type mice. […] Collectively, these findings indicate that these clock-activating molecules are capable of inducing myogenic response via local administration leading to sustained new myofiber formation following acute muscle injury.

[4] = system: primary bone marrow-derived macrophages; assay: NLRP3 inflammasome and CHOP expression in primary bone marrow-derived macrophages; type: cell-based; conditions: for NLRP3 and CHOP with LPS stimulation: LPS challenge; for NLRP3 expression, basal unstimulated: immunoblot
Source text: FIGS. 46A-46D. […] Chronic inflammation in dystrophic muscle, due to the persistent muscle damage with sustained degeneration and regeneration cycles, is a significant component of the pathogenic characteristics of muscular dystrophy contributing to muscle wasting. We thus determined potential ameliorative effects of CHX and CM002 on muscle inflammation in the mdx mice.

[5] = system: mdx mouse primary myoblasts; assay: MTT cell viability of mdx mouse primary myoblasts; type: cell-based
Method: (§1) Cells were seeded at 5×10^4 concentration in 100 μl culture medium into 96 wells flat bottom microplates and treated after 24 h with desired compounds and controls. After desired incubation periods, cells were treated with MTT labeling reagent 1× (MTT (3-[4,5-dimethylthiazol-2-yl]-2,5-diphenyltetrazolium bromide labeling reagent, 5 mg/ml in PBS, Roche Cell Proliferation Kit I (MTT)) and Solubilization buffer 1× (10% SDS in 0.01 M HCl and left overnight. Next morning absorbance was measured at 570 nm and 700 nm on microplate (ELISA) reader (TECAN infinite M200pro). The mean and standard deviation values were calculated for each well and graphed.
(§2) FIGS. 41A-41D. Effect of Chlorhexidine (CHX) and CM002 treatment on viability of mouse and human myoblasts. To determine potential toxic effects of CHX and CM002, we treated mouse C2C12 myoblast cell line with increasing concentrations from 0.2-5 μM for 48 hours and determined cell viability using the MTT assay (FIG. 41A). […] Considering the inflammatory milieus in dystrophic muscles, we further tested the tolerance of myoblasts to these molecules in the presence of inflammatory stimuli, a cytokine cocktail (CC) consisted of 10 ng/mL IL-1β, 100 ng/mL IFN-γ and 25 ng/mL of TNF-α (FIG. 41B). […] Lastly, human primary myoblasts derived from Duchene Muscular Dystrophy (DMD) patients were used to determine their tolerance to these compounds.

[6] = system: C2C12 myoblasts; assay: Myogenic differentiation of C2C12 myoblasts; type: cell-based, mouse; conditions: for MyHC-positive mature myotubes (immunofluorescence): C2C12 differentiation day 5-7
Method: Pictures were taken every day to monitor morphological progression, and proteins and RNA samples were collected on days indicated.
C2C12, C2C12 Bmal1 KD and C2C12 Scrambled control (SC) myoblasts were seeded at Day −1 at 2×105 concentration on 12 wells plates and maintained in 10% FBS until 80% confluency and treated with indicated compounds and controls in 2% FBS DMEM media to induce differentiation on Day 0. On days 3, 5 and 7 cells were fixed with 4% paraformaldehyde (from 37% Formaldehyde Baker Analyzed) and kept at 4° C. in PBS. Cells were permeabilized with Permeabilization solution of 0.5% Triton X-100 (Fisher Bioreagents CN: 9002-93-1) in PBS and blocked with Blocking solution of 1% BSA (Fisher Bioreagents CN:9048-46-8) in PBS. Primary antibodies were diluted in Washing solution of 0.01% Triton X-100 (Fisher Bioreagents CN: 9002-93-1) in PBS and left overnight at 4° C. Cells were then incubated with secondary antibodies in Washing solution at room temperature for 1 h. 1 μg/ml 4′,6′-diamidine-2′-phenylindole dihydrochloride (DAPI) was used to label for nuclei. […] To quantify the proliferation of myoblast, when needed, cells were treated with 1 μg/ml of EdU for 3 h before fixation. Detection of EdU was performed with Click-iT EdU Alexa Fluor 488 Imaging Kit before applying the immunofluorescence staining as described above.

[7] = system: human primary myoblasts derived from DMD patients; assay: MTT cell viability of human DMD primary myoblasts; type: cell-based
Method: as §1, §2

For `CCCCCC/C=N/C(=N)NC(=N)Nc1ccc(Cl)cc1` [CM002], the “myotube fusion, cells seeded at low density” value ([1]; 1 μM vs 0.5 μM, day 3) was “more advanced myotube fusion than that of 0.5 μM”, the “mature myofiber/myocyte formation (MyHC staining)” value ([1]; day 3 of differentiation) was “significantly enhanced mature myocyte formation induced by 0.5 μM CM002 treatment” and the “TOPFlash reporter activity, Wnt3a-containing media” value [2] was 0.1 μM of CM002 comparable to that of CHX induction at 1 μM. The “TOPFlash Wnt activity, basal condition” value [2] was “augmented Wnt activity at basal condition”, the “MyoD, Myf5 and Myogenin levels” value ([3]; CTX-injected TA muscle) was “elevated levels of MyoD, Myf5 and Myogenein” and the Pax7 protein ([3]; CTX-injected TA muscle) was “robustly increased”. For the same molecule, the “eMyHC staining (new myofiber formation)” value [3] was “substantial amount of eMyHC staining indicative of sustained nascent myofiber regeneration”, the “NLRP3 and CHOP with LPS stimulation” value [4] was “suppressed NLRP3 in the presence of LPS without inducing CHOP” and the “NLRP3 expression, basal unstimulated” value [4] was “able to attenuate its expression”. The “concentration up to which cells remain viable” value ([5]; mdx, mouse) was “up to 1 μM”, the “cell death at 2.5 μM” value ([5]; mdx, mouse, 2.5 μM) was “significantly less cell death at 2.5 μM” and the “MyHC-positive mature myotubes (immunofluorescence)” value [6] was “enhanced differentiation induced by 0.5 μM CM002 than CHX with strongest effect on promoting myotube formation observed at CM002 at 1 μM”. The Myogenesis ([6]; Table 1 summary of CHX analogs) was “Enhanced” and the “cell death at 5 μM” value ([7]; human, 5 μM) was “displaying sensitivity to cell death by CM002 treatment at this concentration”.

With `[H]/N=C(\N/C(=N/[H])NCCCCCCNC(=N)NC(=N)Nc1ccc(Cl)cc1)Nc1ccc(Cl)cc1` [CHX, chlorhexidine] the “pro-myogenic effect in Bmal1-deficient (BMKO/mdx) primary myoblasts” value ([1]; day 3 of differentiation) was “abolished in Bmal1-deficient mdx primary myoblasts”, the “mature myofiber/myocyte formation (MyHC staining)” value ([1]; day 3 of differentiation) was “significantly elevated formation of mature myofibers” and the “TOPFlash reporter activity, Wnt3a-containing media” value [2] was “significantly induced”. For the same molecule, the “TOPFlash Wnt activity, basal condition” value [2] was “augmented Wnt activity at basal condition”, the Pax7 protein ([3]; CTX-injected TA muscle) was “robustly increased” and the “eMyHC staining (new myofiber formation)” value [3] was “substantial amount of eMyHC staining indicative of sustained nascent myofiber regeneration”. For the same molecule, the “concentration inducing CHOP (ER stress marker)” value [4] was no less than 1000 nM, the “NLRP3 and CHOP with LPS stimulation” value [4] was “failed to inhibit NLRP3 inflammasome and displayed stimulatory effect at high concentrations accompanied with CHOP induction” and the “NLRP3 expression, basal unstimulated” value [4] was “able to attenuate its expression”. The “concentration causing cell death” value ([5]; with cytokine cocktail) was no less than 500 nM, the myotube hypertrophy ([6]; 0.5 μM, Day 7) was “induced notable myotube hypertrophy” and the “morphological progression of myotube formation” value ([6]; 2% serum differentiation, phase-contrast) was “markedly accelerated the morphological progression of myotube formation”. The “induction of Myf5 and eMyhc in Bmal1-deficient myoblasts” value ([6]; BMKD myoblasts) was “loss of CHX induction of Myf5 and eMyhc”, the “differentiation of Bmal1 shRNA (BMKD) myoblasts” value ([6]; BMKD vs SC) was “failed to augment BMKD myoblast differentiation” and the “MyHC-positive mature myotubes (immunofluorescence)” value [6] was “increased numbers of MyHC-positive mature myotubes”. The “effective concentration range, pro-myogenic activities” value ([6]; C2C12 myoblasts) was 0.2 to 0.5 µM, the toxicity during differentiation ([6]; CHX at 2 and 5 μM) was “appeared to be toxic to myoblasts with cell death during differentiation” and the “Myf5, Myod1 and eMyhc expressions” value ([6]; RT-qPCR) was “significantly induced by 0.5 μM CHX with a tendency toward higher expression 0.2 μM”. The “Myf5 and Myogenin proteins” value ([6]; day 3 and day 5 of differentiation, immunoblot) was “early induction of myogenic factors Myf5 and Myogenin proteins” and the “concentration up to which viability is not significantly compromised” value ([7]; with cytokine cocktail) was “up to 5 μM”.
